Assay results from US7511074B2, “Tetrafluorobenzyl derivatives and pharmaceutical composition for preventing and treating acute and chronic neurodegenerative diseases in central nervous system containing the same” (AmKor Pharma, Inc., priority 2002, dated 2009).

Experiments:
[1] = test system: Sprague-Dawley rats, occlusion of middle cerebral artery; experiment: Transient focal cerebral ischemia (60 min MCAO), infarct volume; format: in vivo, rat
Method: Adult rats received transient cerebral ischemia by occluding right middle cerebral artery and both common carotid arteries for 60 min with intraperitoneal injections of vehicle or 50 mg/kg 2-Hydroxy-TTBA at 5 min, 30 min, or 1 hr after reperfusion. Infarct volume was analyzed 24 hr later after staining brain slices with 2% 2,3,5-triphenyltetrazolium chloride (TTC), mean ±SEM (n=8-11 rats per each condition). *, Significant difference from the vehicle control, p<0.05 using ANOVA and Student-Neuman-Keuls' test.
Adult rats received transient cerebral ischemia by occluding right middle cerebral artery and both common carotid arteries for 60 min with intraperitoneal injections of vehicle (control) or 50 or 100 mg/kg 2-Hydroxy-TTBA at 5 min after reperfusion. Infarct volume was analyzed 24 hr later after staining brain slices with 2% 2,3,5-triphenyltetrazolium chloride (TTC), mean ±SEM (n=7-8 rats per each condition). *, Significant difference from the vehicle control, p<0.05 using ANOVA and Student-Neuman-Keuls' test.
(§1) Adult rats received transient cerebral ischemia by occluding right middle cerebral artery and both common carotid arteries for 60 min, with intravenous injections of vehicle (control) or 5 mg/kg 2-Hydroxy-TTBA at 30 min after occlusion or 5 min, 30 min, 1 hr, 2 hr, or 4 hr after reperfusion. Infarct volume was analyzed 24 hr later, mean ±SEM (n=8-11 rats per each condition). *, Significant difference from the vehicle control, p<0.05 using ANOVA and Student-Neuman-Keuls' test.
as §1, with “or 1, 2.5, 5, 10 or 20” for “or 5”, “at 5” for “at 30”, “min” for “min after occlusion or 5 min, 30 min, 1 hr, 2 hr, or 4 hr”, “±SEM (n=8-10” for “±SEM (n=8-11”
as §1, with “with oral administrations” for “with intravenous injections”, “or 10 or 20” for “or 5”, “at 5” for “at 30”, “min” for “min after occlusion or 5 min, 30 min, 1 hr, 2 hr, or 4 hr”, “±SEM (n=8-10” for “±SEM (n=8-11”
Sprague-Dawley rats were anesthetized with chloral hydrate, and subjected to focal cerebral ischemia by occlusion of middle cerebral artery (MCAO) as previously described [Tamura et al., J. Cerebr. Blood Flow Metab. 1:53-60 (1981)]. Both common carotid arteries (CCAs) were exposed and right middle cerebral artery (rMCA) was exposed under the surgical microscope by making a 3 mm diameter craniotomy rostral to the foramen ovale. CCAs and rMCA were occluded with microclips. The clips were released 60 min later and restoration of blood flow in rMCA was observed under the microscope
Animals received MCAO for 60 min, alone or with administration of 2-Hydroxy-TTBA (50 mg/kg, i.p.) at indicated points of time after reperfusion. Saline was injected as a control. Animals were euthanized 24 hr later and brains removed and sectioned coronally into seven 2-mm slices in a brain matrix. […] The infarction area, outline in white, was measured (TINA image analysis system) and infarction volume was calculated by summing the infarct volume showing white of sequential 2-mm-thick section, mean ±SEM (n=8-12 rats/condition) (FIG. 8a). […]

[2] = test system: Mouse cortical cell cultures; experiment: FeCl2-induced free radical neurotoxicity in mixed cortical cell cultures (LDH assay); format: cell-based; conditions: continuous 50 μM FeCl2; LDH 24 hr later
Method: (§2) Mouse cortical cell cultures (DIV 12-14) were exposed to continuously to 50 μM Fe^2+, alone or with inclusion of 0.1-100 μM 2-Hydroxy-TTBA (●) or trolox (◯), a membrane-permeable form of vitamin E). Neuronal death was analyzed 24 hr later by measuring levels of LDH released into the bathing medium, mean ±SEM (n=9-12 culture wells per condition), scaled to mean LDH efflux value 24 hr after sham wash (=0) and continuous exposure to 500 μM NMDA (=100). *, Significant difference from the vehicle control, p<0.05 using ANOVA and Student-Neuman-Keuls' test.
as §2, with “alone (♦)” for “alone”, “1-30” for “0.1-100”, “2-Hydroxy-TTS (●), 2-Hydroxy-TTA (◯), 2-Chloro-TTP (▾), 2-Ethan-TTBA (∇), 2-Propan-TTBA (▪),” for “2-Hydroxy-TTBA (●)”, “2-Cyclohexan-TTBA (□).” for “trolox (◯), a membrane-permeable form of vitamin E).”
For mixed neuron-glia culture, mouse cerebral cortices were removed from brains of the 14-16 day-old-fetal mice (E14-16), gently triturated and plated on 24 well plates (2×10^5 cells/plate) precoated with 100 μg/ml poly-D-lysine and 4 μg/ml laminine. Cultures were maintained at 37° C. in a humidified 5% CO2 atmosphere. Plating media consist of Eagles minimal essential media (MEM, Earles salts, supplied glutamine-free) supplemented with 5% horse serum, 5% fetal bovine serum, 26.5 mM bicarbonate, 2 mM glutamine, and 21 mM glucose.
After 7-8 days in vitro (DIV 7-8), 10 μM cytosine arabinofuranoside (Ara-C) was included to halt overgrowth of glia. The drug treatment was carried on DIV 12-15 cortical cell culture. Overall neuronal cell injury was assessed by measuring amount of lactate dehydrogenase (LDH) released into the bathing medium 24 hr after neurotoxic insults as previously described [Koh and Choi, J Neurosci Methods 20:83-90, 1987].
Mixed cortical cell cultures (DIV 13-15) were continuously exposed to 50 μM FeCl2, which produces hydroxyl radical via a Fenton reaction, alone or with inclusion of 2-Hydroxy-TTBA, 2-Hydroxy-TTA, 2-Hydroxy-TTS, 2-Chloro-TTP, 2-Ethan-TTBA, 2-Propan-TTBA, 2-Cyclohexan-TTBA or trolox (a vitamin E analogue) at indicated doses. Neuronal cell death was analyzed 24 hr later by LDH assay as described above. *, Significant difference from the vehicle control (FeCl2), p<0.05 using ANOVA and Student-Neuman-Keuls' test.

[3] = intravenous, 5 min after reperfusion, 60 min MCAO

## O=C(O)c1cc(NCc2c(F)c(F)c(C(F)(F)F)c(F)c2F)ccc1O [2-Hydroxy-TTBA, 2-hydroxy-5-(2,3,5,6-tetrafluoro-4-trifluoromethylbenzylamino)benzoic acid]
[1]; 5 mg/kg intravenous, 60 min MCAO, infarct volume 24 hr later
  time after reperfusion up to which delayed injection significantly attenuated infarct volume: up to 4 hr
[1]; 50 mg/kg i.p., 60 min MCAO, infarct volume 24 hr later
  time after reperfusion up to which delayed administration significantly reduced infarct volume: up to 1 hr
[1]; 10 or 20 mg/kg p.o. at 5 min after reperfusion, 24 hr after 60 min MCAO
  infarct volume after oral administration: reduced infarct volume
[1]; [3]
  intravenous doses at which protective effects were observed: higher than 2.5 mg/kg
  lowest intravenous dose attenuating infarct volume: ≥ 1 mg/kg
[2]
  prevention of FeCl2-induced free radical neurotoxicity: prevented FeCl2-induced free radical neurotoxicity in a dose-dependent manner
  strength relative to trolox in preventing free radical neurotoxicity: 30 fold
